Converted amounts (≈) assume the structure as drawn.
Columns and labels:
P. acnes [1] = experiment: Agar dilution method: growth of P. acnes and MIC, compounds tested singly; assay type: cell-based, Propionibacterium acnes; parameters: key to Growth Index (+++, ++, +, −) Plate 1 / Growth Index (+++, ++, +, −) Plate 2 / Growth Index (+++, ++, +, −) Plate 3 / Growth Index (+++, ++, +, −) Avg: +++: confluent growth (comparable to control); ++: less confluent growth; +: marked reduction in growth to multiple tiny, single colonies; −: no growth present; settings: for MIC: Cutibacterium acnes, compound alone, MIC = concentration with marked reduction (+) of growth, read-out: MIC (mg/mL) as per P-11-0007 or P-11-0008 Addendum A
Protocol: (§1) Several compounds including fatty acids such as DGLA, 15-OHEPA, and 15-HETrE were tested to determine their capacity to inhibit the growth of P. acnes. In an exemplary method, an agar dilution method was used to determine the minimum inhibitory concentration (MIC) of each tested compound. Briefly, the agar dilution method involved preparing a series of concentrations of each compound (e.g., nicotinamide, benzoyl peroxide, adapalene, metronidazole, DGLA, 15-OHEPA, and 15-HETrE) in a Reinforced Clostridial Agar (RCA) media that facilitates growth of P. acnes under anaerobic conditions. An inoculum of P. acnes was prepared by incubation of P. acnes for approximately seven days at 35-37° C. to achieve a ≧1.0 OD600 inoculum of P. acnes in RCM broth. A portion of this inoculum was then added to the surface of each plate as a 10 μL spot and incubated at 35-37° C. for 72 hours or more. Growth of P. acnes was then observed and compared to control plates in which no compound has been added, and positive inhibition plates prepared with erythromycin. […] The growth of P. acnes in the presence of nicotinamide, benzoyl peroxide, adapalene, metronidazole, DGLA, 15-OHEPA, and 15-HETrE was determined with varying concentrations of the compound (see, Table 2). Next, the MIC was determined as the concentration at which a marked reduction (+) occurs in the appearance of growth on the test plate (as per Clinical and Laboratory Standards Institute M11-A7).

P. acnes [2] = experiment: Agar dilution method: growth of P. acnes and MIC, fatty acid compounds in combination with other compounds; assay type: cell-based, Propionibacterium acnes
Protocol: as §1, with “M11-A7). The compounds tested singly in Example 1 were tested in combination with one another to determine the capacity of the combination to inhibit the growth of P. acnes. In an exemplary method, the MIC was determined for each of the combination as described in Example 1. Briefly, test combinations included DGLA with nicotinamide, benzoyl peroxide, adapalene, or metronidazole; 15-HETrE with nicotinamide, benzoyl peroxide, adapalene, or metronidazole; and 15-OHEPA with nicotinamide, benzoyl peroxide, adapalene, or metronidazole. The tables below show the growth of P. acnes in the presence of 0.4 or 1.0 mg/mL DGLA with varying concentrations of nicotinamide, benzoyl peroxide, adapalene, or metronidazole (Table 3); the growth of P. acnes in the presence of 0.01 or 0.05 mg/mL 15-HETrE with varying concentrations of nicotinamide, benzoyl peroxide, adapalene, or metronidazole (Table 5); and the growth of P. acnes in the presence of 0.5 or 0.1 mg/mL 15-OHEPA with varying concentrations of nicotinamide, benzoyl peroxide, adapalene, or metronidazole (Table 7).” for “M11-A7).”

| MIC (P. acnes [1]) [µg/mL] | SMILES | Growth Index (+++, ++, +, −) Avg (P. acnes [1]; compound at 0.2 mg/mL in agar) | Growth Index (+++, ++, +, −) Plate 1 (P. acnes [1]; compound at 0.2 mg/mL in agar) | Growth Index (+++, ++, +, −) Plate 2 (P. acnes [1]; compound at 0.2 mg/mL in agar) | Growth Index (+++, ++, +, −) Plate 3 (P. acnes [1]; compound at 0.2 mg/mL in agar) | Growth Index (+++, ++, +, −) Avg (P. acnes [1]; compound at 0.4 mg/mL in agar) | Growth Index (+++, ++, +, −) Plate 1 (P. acnes [1]; compound at 0.4 mg/mL in agar) | Growth Index (+++, ++, +, −) Plate 2 (P. acnes [1]; compound at 0.4 mg/mL in agar) | Growth Index (+++, ++, +, −) Plate 3 (P. acnes [1]; compound at 0.4 mg/mL in agar) | Growth Index (+++, ++, +, −) Avg (P. acnes [1]; compound at 0.6 mg/mL in agar) | Growth Index (+++, ++, +, −) Plate 1 (P. acnes [1]; compound at 0.6 mg/mL in agar) | Growth Index (+++, ++, +, −) Plate 2 (P. acnes [1]; compound at 0.6 mg/mL in agar) | Growth Index (+++, ++, +, −) Plate 3 (P. acnes [1]; compound at 0.6 mg/mL in agar) | Growth Index (+++, ++, +, −) Avg (P. acnes [1]; compound at 0.8 mg/mL in agar) | Growth Index (+++, ++, +, −) Plate 1 (P. acnes [1]; compound at 0.8 mg/mL in agar) | Growth Index (+++, ++, +, −) Plate 2 (P. acnes [1]; compound at 0.8 mg/mL in agar) | Growth Index (+++, ++, +, −) Plate 3 (P. acnes [1]; compound at 0.8 mg/mL in agar) | other results |
| --- | --- | --- | --- | --- | --- | --- | --- | --- | --- | --- | --- | --- | --- | --- | --- | --- | --- | --- |
| 600 to 800 (≈ 2480 to 3300 µM) | O=C(OOC(=O)c1ccccc1)c1ccccc1 [Benzoyl Peroxide, benzoyl peroxide] | +++ | +++ | +++ | +++ | +++ | +++ | +++ | +++ | ++ | ++ | +++ | ++ | + | + | + | + | MIC (mg/mL) with 0.05 mg/mL 15-HETrE spike (P. acnes [2]; 0.05 mg/mL 15-HETrE spike, itself an inhibitory concentration): <0.2 mg/mL; MIC (mg/mL) with 0.1 mg/mL 15-OHEPA spike (P. acnes [2]; 0.1 mg/mL 15-OHEPA spike, itself an inhibitory concentration): <0.2 mg/mL; growth of P. acnes in combination with 15-HETrE compared with 15-HETrE alone (P. acnes [2]; in combination with 15-HETrE): did not reduce the growth of P. Acnes below that of 15-HETrE used alone |
| 400 to 600 (≈ 1310 to 1960 µM) | CCCCC/C=C\C/C=C\C/C=C\CCCCCCC(=O)O [DGLA, cis-8,11,14-eicosatrienoic acid] | +++ | +++ | +++ | +++ | +++ | +++ | +++ | +++ | + | ++ | − | ++ | + | ++ | + | + | effect on growth of P. acnes on its own (P. acnes [1]; 0.4 mg/ml): no effect on its own; Growth Index (+++, ++, +, −) Avg (P. acnes [1]; compound at 1.0 mg/mL in agar): +; Growth Index (+++, ++, +, −) Plate 1 (P. acnes [1]; compound at 1.0 mg/mL in agar): +; Growth Index (+++, ++, +, −) Plate 2 (P. acnes [1]; compound at 1.0 mg/mL in agar): +; Growth Index (+++, ++, +, −) Plate 3 (P. acnes [1]; compound at 1.0 mg/mL in agar): + |
| 0.01 to 0.05 (≈ 0.0136 to 0.0681 µM) | CC[C@H]1OC(=O)[C@H](C)[C@@H](O[C@H]2C[C@@](C)(OC)[C@@H](O)[C@H](C)O2)[C@H](C)[C@@H](O[C@@H]2O[C@H](C)C[C@H](N(C)C)[C@H]2O)[C@](C)(O)C[C@@H](C)C(=O)[C@H](C)[C@@H](O)[C@]1(C)O [Erythromycin] |  |  |  |  |  |  |  |  |  |  |  |  |  |  |  |  |  |

From patent US8293790B2, “Pharmaceutical compositions comprising DGLA and benzoyl peroxide and methods of use thereof” (Dignity Sciences Limited, priority 2011, dated 2012)
